This note sets out measurements from patent US20230295197A1, “STAT5 and STAT6 Degraders and Uses Thereof” (REGENTS OF THE UNIVERSITY OF MICHICAN, priority 2022, published 2023).

Structures are written as SMILES. Where only a bound is given, the exact number is not on record here.

One experiment concerns the target T1, STAT6 (Homo sapiens, UniProt P42226).
T1 construct: endogenous in cells; host or cells: MOLM-16, KU-812, SKNO1, MB231, L1236
T1 sequence (P42226 1-847): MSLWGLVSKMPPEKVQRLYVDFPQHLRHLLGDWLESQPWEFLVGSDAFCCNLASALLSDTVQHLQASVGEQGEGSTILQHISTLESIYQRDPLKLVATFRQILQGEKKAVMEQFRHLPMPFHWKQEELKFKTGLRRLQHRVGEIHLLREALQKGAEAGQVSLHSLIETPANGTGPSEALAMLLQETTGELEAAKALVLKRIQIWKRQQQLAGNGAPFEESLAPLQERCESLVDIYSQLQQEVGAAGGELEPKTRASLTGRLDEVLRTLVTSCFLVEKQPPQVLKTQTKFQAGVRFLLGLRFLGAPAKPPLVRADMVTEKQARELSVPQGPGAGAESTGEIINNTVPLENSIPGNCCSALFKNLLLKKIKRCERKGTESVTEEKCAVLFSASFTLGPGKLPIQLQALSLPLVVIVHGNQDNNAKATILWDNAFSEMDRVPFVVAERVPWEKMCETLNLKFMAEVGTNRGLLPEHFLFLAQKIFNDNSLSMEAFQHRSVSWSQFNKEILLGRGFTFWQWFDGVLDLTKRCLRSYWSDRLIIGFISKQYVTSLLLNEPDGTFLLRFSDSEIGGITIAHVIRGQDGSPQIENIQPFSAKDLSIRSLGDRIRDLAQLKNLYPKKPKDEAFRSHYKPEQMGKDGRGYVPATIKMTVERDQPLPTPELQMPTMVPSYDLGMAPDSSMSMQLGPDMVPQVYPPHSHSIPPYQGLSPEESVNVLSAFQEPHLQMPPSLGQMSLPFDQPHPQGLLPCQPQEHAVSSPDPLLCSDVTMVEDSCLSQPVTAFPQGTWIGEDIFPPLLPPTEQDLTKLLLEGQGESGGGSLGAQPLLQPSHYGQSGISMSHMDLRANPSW
Briefly: Immunoblotting (Western blot) analysis of STAT6 degradation efficiency of degraders in treated cells. The settings on record: L1236 cells, read-out: DC50 S6 L1236. The class given is cell-based. A digest of the protocol: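 ~1e6 cells/pt; cpd at indicated conc and duration; RIPA + protease/phosphatase inhibitors; BCA; 20-40 μg/lane Tris-glycine SDS-PAGE; PVDF; primary Ab 1:1000 o/n 4 °C; IRDye secondaries 1 h rt; infrared scan and densitometry; GAPDH loading ctrl.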
`O=C1CCC(N2Cc3cc(C#CCCCCCC(=O)N4CC[C@H]5CC[C@@H](C(=O)N6CC[C@@H](c7ccccc7)C6)N5C(=O)[C@@H](NC(=O)c5cc6cc(C(F)(F)P(=O)(O)O)ccc6s5)C4)ccc3C2=O)C(=O)N1` (stereo partly drawn) [Compound 574, ((2-(((5S,8S,10aR)-3-(8-(2-(2,6-dioxopiperidin-3-yl)-1-oxoisoindolin-5-yl)oct-7-ynoyl)-6-oxo-8-((S)-3-phenylpyrrolidine-1-carbonyl)decahydropyrrolo[1,2-a][1,5]diazocin-5-yl)carbamoyl)benzo[b]thiophen-5-yl)difluoromethyl)phosphonic acid]: the DC50 was more than 10 µM.

Staying with this experiment, now noted: MB231 cells, read-out: DC50 S6 MB231.
`Cc1cc([C@H](C(=O)N2C[C@H](O)C[C@H]2C(=O)N[C@@H](CC(=O)NCCCCCCCCNC(=O)CCN(C(=O)[C@@H]2CCCN2C(=O)[C@@H](NC(=O)c2cc3cc(C(F)(F)P(=O)(O)O)ccc3s2)C(C)(C)C)c2ccc(Br)cc2)c2ccc(-c3scnc3C)cc2)C(C)C)on1` [Compound 408, ((2-(((S)-1-((S)-2-((4-bromophenyl)(3-((8-((S)-3-((2S,4R)-4-hydroxy-1-((R)-3-methyl-2-(3-methylisoxazol-5-yl)butanoyl)pyrrolidine-2-carboxamido)-3-(4-(4-methylthiazol-5-yl)phenyl)propanamido)octyl)amino)-3-oxopropyl)carbamoyl)pyrrolidin-1-yl)-3,3-dimethyl-1-oxobutan-2-yl)carbamoyl)benzo[b]thiophen-5-yl)difluoromethyl)phosphonic acid]: the DC50 is more than 10 µM.

Staying with this experiment, now noted: MOLM-16 cells, class symbols, read-out: DC50 S6 MOLM-16.
As to `CC(C)(C)[C@H](NC(=O)c1cc2cc(C(F)(F)P(=O)(O)O)ccc2s1)C(=O)N1C[C@@H](OCC(=O)NCCCCC#Cc2ccc3c(c2)C(=O)N(C2CCC(=O)NC2=O)C3=O)C[C@H]1C(=O)N1CCC[C@H](c2ccccc2)C1` (stereo partly drawn) [Compound 500, ((2-(((2S)-1-((2S,4S)-4-(2-((6-(2-(2,6-dioxopiperidin-3-yl)-1,3-dioxoisoindolin-5-yl)hex-5-yn-1-yl)amino)-2-oxoethoxy)-2-((R)-3-phenylpiperidine-1-carbonyl)pyrrolidin-1-yl)-3,3-dimethyl-1-oxobutan-2-yl)carbamoyl)benzo[b]thiophen-5-yl)difluoromethyl)phosphonic acid], the half-maximal degradation concentration (DC50) was more than 10 µM.

In the case of `CC(C)(C)[C@H](NC(=O)c1cc2cc(C(F)(F)P(=O)(O)O)ccc2s1)C(=O)N1CCN(C(=O)CC(=O)NCCCCCCCCCC#Cc2cccc3c2C(=O)N(C2CCC(=O)NC2=O)C3=O)C[C@H]1C(=O)N1CCO[C@H](c2ccccc2)C1` (stereo partly drawn) [Compound 519, ((2-(((2S)-1-((2S)-4-(3-((11-(2-(2,6-dioxopiperidin-3-yl)-1,3-dioxoisoindolin-4-yl)undec-10-yn-1-yl)amino)-3-oxopropanoyl)-2-((R)-2-phenylmorpholine-4-carbonyl)piperazin-1-yl)-3,3-dimethyl-1-oxobutan-2-yl)carbamoyl)benzo[b]thiophen-5-yl)difluoromethyl)phosphonic acid], the 50% degradation concentration (DC50) was more than 10 µM.

As for `CC(C)(C)[C@H](NC(=O)c1cc2cc(C(F)(F)P(=O)(O)O)ccc2s1)C(=O)N1CCN(C(=O)CC(=O)NCCCCCC#Cc2ccc3c(c2)C(=O)N(C2CCC(=O)NC2=O)C3=O)C[C@H]1C(=O)N1CCO[C@H](c2ccccc2)C1` (stereo partly drawn) [Compound 516, ((2-(((2S)-1-((2S)-4-(3-((7-(2-(2,6-dioxopiperidin-3-yl)-1,3-dioxoisoindolin-5-yl)hept-6-yn-1-yl)amino)-3-oxopropanoyl)-2-((R)-2-phenylmorpholine-4-carbonyl)piperazin-1-yl)-3,3-dimethyl-1-oxobutan-2-yl)carbamoyl)benzo[b]thiophen-5-yl)difluoromethyl)phosphonic acid], the DC50 was more than 10 µM.

Regarding `CC(C)(C)[C@H](NC(=O)c1cc2cc(C(F)(F)P(=O)(O)O)ccc2s1)C(=O)N1CCN(C(=O)CC(=O)NCCCCCCCCC#Cc2ccc3c(c2)C(=O)N(C2CCC(=O)NC2=O)C3=O)C[C@H]1C(=O)N1CCC[C@H](c2ccccc2)C1` (stereo partly drawn) [Compound 532, ((2-(((2S)-1-((2S)-4-(3-((10-(2-(2,6-dioxopiperidin-3-yl)-1,3-dioxoisoindolin-5-yl)dec-9-yn-1-yl)amino)-3-oxopropanoyl)-2-((R)-3-phenylpiperidine-1-carbonyl)piperazin-1-yl)-3,3-dimethyl-1-oxobutan-2-yl)carbamoyl)benzo[b]thiophen-5-yl)difluoromethyl)phosphonic acid], the DC50 was more than 10 µM.

`CC(C)(C)c1ccc(C[C@H](NC(=O)c2cc3cc(C(F)(F)P(=O)(O)O)ccc3s2)C(=O)N2C[C@@H](OCCCCCC(=O)N3Cc4cc5c(cc4C3)C(=O)N(C3CCC(=O)NC3=O)C5)C[C@H]2C(=O)N2CCO[C@H](c3ccccc3)C2)cc1` (stereo partly drawn) [Compound 591, ((2-(((2S)-3-(4-(tert-butyl)phenyl)-1-((2S,4S)-4-((6-(6-(2,6-dioxopiperidin-3-yl)-5-oxo-3,5,6,7-tetrahydropyrrolo[3,4-f]isoindol-2(1H)-yl)-6-oxohexyl)oxy)-2-((R)-2-phenylmorpholine-4-carbonyl)pyrrolidin-1-yl)-1-oxopropan-2-yl)carbamoyl)benzo[b]thiophen-5-yl)difluoromethyl)phosphonic acid]: the DC50 is more than 10 µM.

Take `O=C1CCC(N2Cc3cc(C#CCCCCCC(=O)N4CC[C@H]5CC[C@@H](C(=O)N6CC[C@@H](c7ccccc7)C6)N5C(=O)[C@@H](NC(=O)c5cc6cc(C(F)(F)P(=O)(O)O)ccc6s5)C4)ccc3C2=O)C(=O)N1` (stereo partly drawn) [Compound 574, ((2-(((5S,8S,10aR)-3-(8-(2-(2,6-dioxopiperidin-3-yl)-1-oxoisoindolin-5-yl)oct-7-ynoyl)-6-oxo-8-((S)-3-phenylpyrrolidine-1-carbonyl)decahydropyrrolo[1,2-a][1,5]diazocin-5-yl)carbamoyl)benzo[b]thiophen-5-yl)difluoromethyl)phosphonic acid]: the DC50 is more than 10 µM.

`CC(C)(C)[C@H](NC(=O)c1cc2cc(C(F)(F)P(=O)(O)O)ccc2s1)C(=O)N1CCN(C(=O)CC(=O)NCCCCCC#Cc2ccc3c(c2)C(=O)N(C2CCC(=O)NC2=O)C3=O)C[C@H]1C(=O)N1CCC[C@H](c2ccccc2)C1` (stereo partly drawn) [Compound 530, ((2-(((2S)-1-((2S)-4-(3-((7-(2-(2,6-dioxopiperidin-3-yl)-1,3-dioxoisoindolin-5-yl)hept-6-yn-1-yl)amino)-3-oxopropanoyl)-2-((R)-3-phenylpiperidine-1-carbonyl)piperazin-1-yl)-3,3-dimethyl-1-oxobutan-2-yl)carbamoyl)benzo[b]thiophen-5-yl)difluoromethyl)phosphonic acid]: the DC50 was more than 10 µM.

For the compound `CC(C)(C)[C@H](NC(=O)c1cc2cc(C(F)(F)P(=O)(O)O)ccc2s1)C(=O)N1C[C@@H](OCCCCCCC#Cc2cccc3c2CN(C2CCC(=O)NC2=O)C3=O)C[C@H]1C(=O)N1CCS(=O)(=O)C(c2ccccc2)C1` (stereo partly drawn) [Compound 607, ((2-(((2S)-1-((2S,4S)-2-(1,1-dioxido-2-phenylthiomorpholine-4-carbonyl)-4-((8-(2-(2,6-dioxopiperidin-3-yl)-1-oxoisoindolin-4-yl)oct-7-yn-1-yl)oxy)pyrrolidin-1-yl)-3,3-dimethyl-1-oxobutan-2-yl)carbamoyl)benzo[b]thiophen-5-yl)difluoromethyl)phosphonic acid], the DC50 was less than 0.1 µM.

Staying with this experiment, now noted: MOLM-16 cells, numeric bound, read-out: DC50 S6 MOLM-16.
Turning to `CC(C)(C)[C@H](NC(=O)c1cc2cc(C(F)(F)P(=O)(O)O)ccc2s1)C(=O)N1C[C@@H](OCCCCCC#Cc2cccc3c2CN(C2CCC(=O)NC2=O)C3=O)C[C@H]1C(=O)N1CCC[C@H](c2ccccc2)C1` (stereo partly drawn) [Compound 601, ((2-(((2S)-1-((2S,4S)-4-((7-(2-(2,6-dioxopiperidin-3-yl)-1-oxoisoindolin-4-yl)hept-6-yn-1-yl)oxy)-2-((R)-3-phenylpiperidine-1-carbonyl)pyrrolidin-1-yl)-3,3-dimethyl-1-oxobutan-2-yl)carbamoyl)benzo[b]thiophen-5-yl)difluoromethyl)phosphonic acid], the DC50 is more than 0.3 µM.

`CC(C)(C)[C@H](NC(=O)c1cc2cc(C(F)(F)P(=O)(O)O)ccc2s1)C(=O)N1C[C@H](OCCCCCC#Cc2cccc3c2CN(C2CCC(=O)NC2=O)C3=O)C[C@H]1C(=O)N1CCO[C@H](c2ccccc2)C1` (stereo partly drawn) [Compound 600, ((2-(((2S)-1-((2S,4R)-4-((7-(2-(2,6-dioxopiperidin-3-yl)-1-oxoisoindolin-4-yl)hept-6-yn-1-yl)oxy)-2-((R)-2-phenylmorpholine-4-carbonyl)pyrrolidin-1-yl)-3,3-dimethyl-1-oxobutan-2-yl)carbamoyl)benzo[b]thiophen-5-yl)difluoromethyl)phosphonic acid]: the DC50 is more than 0.3 µM.

As for `CC(C)(C)[C@H](NC(=O)c1cc2cc(C(F)(F)P(=O)(O)O)ccc2s1)C(=O)N1C[C@@H](OCCCCCCC#Cc2cccc3c2CN(C2CCC(=O)NC2=O)C3=O)C[C@H]1C(=O)N1CCOC(c2cccc3ccccc23)C1` (stereo partly shown) [Compound 612], the DC50 was more than 0.3 µM.
